These are literature values, as cited in patent US20060173179A1, “Azabenzoxazoles for the treatment of CNS disorders” (Pfizer Inc, priority 2004, published 2006).

Assay in data set [1]: not given
This is another data set of the same source.

The half-life is how long it takes for the measured level to halve. With `O=C1Cc2cc(CCN3CCN(c4nsc5ccccc45)CC3)c(Cl)cc2N1` [Ziprasidone, 5-[2-[4-(1,2-benzisothiazol-3-yl)piperazin-1-yl]ethyl]-6-chloroindolin-2-one], for the setting “in vivo”, the half-life is 6 to 7 h. Under “taken with food”, the Oral bioavailability result was “approximately 60%”. Moreover, the protein binding result in data set [1] is given as “extensive”.
